The text below walks through data of PubChem BioAssay (NCI).

Each structure is given as a SMILES string.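 Grown in 96-well plates, cells were treated for 48 hours with each compound at five concentrations. Insufficient inhibition: endpoint recorded as highest concentration tested. TGI is the concentration that stops growth completely.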

Common to all, as to assay: NCI-60 cell line screen, 48 h
The test system of test [1] is UACC-62 melanoma.
The test system of test [2] is NCI-H226 lung.
Test [3] relates to HL-60(TB) leukemia.
The subject of test [4] is IGROV1 ovarian.
For test [5], the system named is SK-MEL-5 melanoma.
The subject of test [6] is ACHN renal.
Test [7] concerns RXF 393 renal.
Test [8] has as its system SK-MEL-28 melanoma.
The subject of test [9] is K-562 leukemia.
Test [10] deals with SNB-75 CNS.
Test [11] has as its system SW-620 colon.
The test system of test [12] is NCI-H460 lung.
The subject of test [13] is MDA-MB-435.
For test [14], the system named is MDA-MB-231 breast.
The subject of test [15] is HOP-92 NSCLC.
The test system of test [16] is MCF7 breast.
Test [17] deals with MDA-N.
Test [18] concerns HS 578T breast.

Consider `N#CC(C#N)=Cc1ccc(Oc2ccccc2)cc1`, for which the TGI in test [1] was 35 µM; in test [2], over 72.8 µM; in [3] it was 55.1 µM; in [4], over 69 µM; in test [5], 64.7 µM; in test [6], over 31.6 µM. The TGI was over 100 µM in [7]; 25.3 µM in test [8]; over 80.4 µM in test [9]; over 91.7 µM in test [10]; 72.3 µM in [11]; over 100 µM in test [12].

For the molecule `COC(=O)C1=C(OC(=O)/C(=C/c2c(F)cccc2F)c2ccccc2)C(C(=O)OC)[C@@]2(O)[C@@H](C(=O)OC)[C@H](C)C[C@@H]1[C@@H]2C(=O)OC` (stereo partly specified), the TGI in test [13], in [1], in test [2], in test [3], in [4] and in test [6] was over 100 µM throughout. Further, the TGI in test [14], in [7], in test [8], in [9], in test [10] and in test [11] was over 100 µM each time. This molecule gave a TGI in test [12] of over 100 µM.

For the molecule `CCOC(=O)/C(=C/c1ccc(Cl)cc1)N(CC)CC`, the TGI in test [15], in test [1], in test [2], in [3], in test [4] and in test [5] was over 100 µM each time. In addition, the TGI in test [6], in [8], in [9], in test [10], in test [11] and in [12] was over 100 µM throughout.

As for `ClCCCC1COc2ccccc2O1` (stereo unspecified), the TGI in [15], in test [16], in test [1], in test [2], in test [17] and in [3] was over 100 µM each time. Besides, the TGI in test [4], in test [5], in [6], in test [7], in [8] and in [9] was over 100 µM throughout. Also, the TGI in [10], in [11] and in test [12] was over 100 µM in each case.

Take `CCC(C)C(NC(=O)c1c2ccccc2nc2ccccc12)C(=O)O` (stereo unspecified): the TGI in test [15], in test [16], in test [13], in test [1], in test [2] and in test [4] was over 100 µM each time. In addition, the TGI in [5], in test [6], in test [14], in [8], in [9] and in test [10] was over 100 µM each time. Also, the TGI in test [11] and in test [12] was over 100 µM throughout.

`CC1=C2c3ccccc3N(S(=O)(=O)c3ccccc3)[C@H]2[C@H](C(=O)N2C3CC4CC[C@@]3(CS2(=O)=O)C4(C)C)CC1` (stereo partly specified): the TGI in [15] was over 100 µM; in [16] it was 75.4 µM; in [13] it was over 100 µM; in [1], over 100 µM; in [2], over 100 µM; in [3], 21.9 µM. Moreover, the TGI in test [4] was over 100 µM; in [5], 91.3 µM; in test [6], over 100 µM; in [14], over 100 µM; in test [7] it was 14.7 µM; in [8] it was over 100 µM. The TGI was over 100 µM in test [9]; 19.6 µM in [10]; over 100 µM in test [11]; over 100 µM in test [18]; over 100 µM in test [12].

For `O=C1NCC2(CCNCC2)N1`, the TGI in test [15], in [16], in test [13], in [1], in test [2] and in test [3] was over 100 µM each time. Besides, the TGI in [4], in test [5], in test [6], in test [14], in test [7] and in test [8] was over 100 µM in each case. Besides, the TGI in [10], in [11], in [18] and in test [12] was over 100 µM throughout.

Turning to `COc1cccc(N2C(=O)[C@H]3[C@H]4CC(C(C)(C)C)CC[C@H]4c4c([nH]c5ccccc45)[C@H]3C2=O)c1` (stereo partly specified), the TGI is 28.3 µM in test [1]; 40.3 µM in test [2]; over 100 µM in test [3]; 39.1 µM in test [4]; 35.6 µM in [5]; 42 µM in test [7]. Also, the TGI was 35.6 µM in test [8], 29 µM in test [9], 30.1 µM in [10] and 41 µM in test [11].

With `O=c1nc(-c2ccccc2)scc1-c1ccccc1`, the TGI in test [15], in test [1], in [2], in test [3], in [4] and in [5] was over 100 µM each time. Further, the TGI in [6], in test [7], in test [8], in test [9], in test [10] and in test [11] was over 100 µM each time. The molecule further displayed a TGI in [12] of over 100 µM.

On to `Cc1ccc(-c2n[nH]c(=O)n2N2C(=O)C=CC2=O)cc1`, for which the TGI in [16], in test [13], in test [1], in test [2], in test [3] and in [4] was over 100 µM in each case. The TGI in [5], in test [14], in test [7], in test [9], in [18] and in [12] was over 100 µM throughout.

For `CC(=O)NC(CCCOC(C)=O)C(=O)NC(CCCOC(C)=O)C(=O)NC(CCCOC(C)=O)C(=O)NC(Cc1ccc([N+](=O)[O-])cc1)C(=O)NCC(=O)OCc1ccccc1` (stereo unspecified), the TGI in [15], in test [16], in test [13], in test [1], in test [2] and in [4] was over 100 µM each time. For the same molecule, the TGI in test [5], in test [6], in [14], in [7], in [8] and in test [9] was over 100 µM each time. The TGI in [10], in [11], in [18] and in test [12] was over 100 µM in each case.

As for `N#CC1C(=O)NC2=C(CCOc3c2ccc2ccccc32)C1c1ccc(F)cc1` (stereo unspecified), the TGI in test [15] was 28.5 µM; in test [16] it was over 100 µM; in test [13] it was over 100 µM; in test [3], over 100 µM; in [4], 37.9 µM; in test [5], 80.8 µM. Moreover, the TGI in test [6] was 26.1 µM; in [7], 36 µM; in test [9] it was over 100 µM; in test [10], 54 µM; in test [11], over 100 µM; in [18], 43.8 µM. The TGI in test [12] is over 100 µM.

As for `COC(=O)C(C(=O)C(=O)Nc1ccc([N+](=O)[O-])cc1)c1nc2cc(C)c(C)cc2[nH]c1=O` (stereo unspecified), the TGI in test [15], in test [1], in test [2], in [3], in [4] and in test [5] was over 100 µM in each case. Besides, the TGI in test [6], in test [7], in test [8], in test [9], in test [10] and in [11] was over 100 µM throughout. Also, the TGI in test [12] is over 100 µM.

As for `Nc1ccc(-c2nc3ccc(Cc4ccc5nc(-c6ccc(N)cc6)oc5c4)cc3o2)cc1`, the TGI in test [15], in test [16], in test [13], in test [1], in test [2] and in test [17] was over 100 µM throughout. Moreover, the TGI in [6], in [14], in [7], in test [8], in test [9] and in test [11] was over 100 µM throughout. For the same molecule, in test [12], the TGI was over 100 µM.

For the molecule `CC(=O)O[C@]12CCCCC1C1(O)C(O)CCCC[C@H]12` (stereo partly specified), the TGI in [1], in test [2], in test [3], in [5], in [6] and in test [7] was over 100 µM each time. Besides, the TGI in [8], in test [9], in [10], in test [11] and in [12] was over 100 µM each time.

Take `CCOc1ccc(N=Nc2c(-c3ccccc3)nn(C(=O)CC(=O)Nc3cccc(C)c3)c2-c2ccccc2)cc1`: the TGI in [15], in test [1], in test [2], in [3], in [4] and in [5] was over 100 µM each time. The TGI in test [6], in [7], in [8], in test [9], in test [10] and in test [11] was over 100 µM in each case. This molecule came in with a TGI in [12] of over 100 µM.

`COC(=O)C1CCC[C@H]2C(CO)=C(C)C(=O)[C@@H]12` (stereo partly specified): the TGI in [15], in test [1], in test [2], in test [3], in test [4] and in test [5] was over 100 µM in each case. Also, the TGI in [6], in [7], in test [8], in test [9], in [10] and in test [11] was over 100 µM each time. For the same molecule, in test [12], the TGI was over 100 µM.

For `NN/C(=N\S(=O)(=O)c1cccc2nsnc12)Nc1ccc(Cl)cc1`, the TGI in [15], in [16], in [1], in [2], in test [17] and in test [3] was over 100 µM each time. In addition, the TGI in [4], in test [5], in test [6], in test [14], in test [7] and in test [8] was over 100 µM each time. Further, the TGI in [9], in test [10], in test [11] and in test [12] was over 100 µM throughout.

Regarding `CN(C)C(=O)C(F)(F)C(c1ccc(C(F)(F)F)cc1)C1C(=O)N(C)C(=O)N(C)C1=O` (stereo unspecified), the TGI in test [15], in test [16], in test [13], in test [1], in test [2] and in [5] was over 100 µM each time. In addition, the TGI in test [6], in test [14], in test [7], in test [8], in test [10] and in test [11] was over 100 µM each time. Moreover, in test [12], the TGI is over 100 µM.

With `CN/N=C(/CC(=O)c1sc(-n2nc(-c3ccccc3)cc2-c2ccccc2)nc1C)C(=O)Nc1ccc(Cl)c(Cl)c1`, the TGI in test [15] was 70.4 µM; in [1], over 100 µM; in test [2], over 100 µM; in [4] it was over 100 µM; in test [5], over 100 µM; in test [6] it was over 100 µM. Also, the TGI in test [7], in test [8], in test [9], in test [11] and in [12] was over 100 µM in each case.
